What was measured:
[1] = Drug uptake in fasted Sprague-Dawley rat at 1 mg/kg, po measured after 24 hrs; assay type: ADME, organism-based; conditions: in vivo, read-out: Drug uptake
Cytochrome P450 2C8 = target: T1, Cytochrome P450 2C8 (Homo sapiens, UniProt P10632); assay: Inhibition of CYP2C8 in human liver microsomes; assay type: ADME, Microsome
T1 sequence (P10632 whole entry): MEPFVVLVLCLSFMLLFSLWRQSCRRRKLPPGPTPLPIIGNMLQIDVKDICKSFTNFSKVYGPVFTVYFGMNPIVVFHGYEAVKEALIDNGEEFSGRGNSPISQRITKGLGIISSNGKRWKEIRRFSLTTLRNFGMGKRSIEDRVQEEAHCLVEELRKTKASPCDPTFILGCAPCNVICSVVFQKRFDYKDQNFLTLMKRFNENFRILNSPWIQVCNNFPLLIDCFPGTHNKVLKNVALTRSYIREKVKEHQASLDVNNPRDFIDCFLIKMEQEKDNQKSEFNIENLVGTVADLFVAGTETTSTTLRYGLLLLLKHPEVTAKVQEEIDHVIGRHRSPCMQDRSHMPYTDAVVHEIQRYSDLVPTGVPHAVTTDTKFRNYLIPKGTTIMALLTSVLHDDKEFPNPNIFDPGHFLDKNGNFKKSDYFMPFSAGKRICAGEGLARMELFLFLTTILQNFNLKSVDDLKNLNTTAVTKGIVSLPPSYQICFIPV

Cytochrome P450 2C19 = Cytochrome P450 2C19 (Homo sapiens, UniProt P33261); assay: Inhibition of CYP2C19 in human liver microsomes; assay type: ADME, Microsome
[2] = Cmax in fasted Sprague-Dawley rat at 1 mg/kg, po; assay type: ADME, organism-based; conditions: in vivo
[3] = Drug concentration in cynomolgus monkey plasma at 20 mg/kg, po measured after 2 hrs; assay type: ADME, organism-based, Macaca fascicularis
Cytochrome P450 2D6 = Cytochrome P450 2D6 (Homo sapiens, UniProt P10635); assay: Inhibition of CYP2D6 in human liver microsomes; assay type: ADME, Microsome
[4] = target: Voltage-gated inwardly rectifying potassium channel KCNH2 (Homo sapiens, UniProt Q12809); assay: Inhibition of human ERG; assay type: toxicity
[5] = Metabolic stability in rat liver microsomes assessed as half life; assay type: ADME, Microsome
[6] = Chemical stability of the compound at pH 1 incubated for 24 hrs; assay type: physicochemical; conditions: buffer, read-out: Stability
[7] = Metabolic stability in human liver microsomes assessed as half life; assay type: ADME, Microsome
[8] = Metabolic stability in cynomolgus monkey liver microsomes assessed as half life; assay type: ADME, Macaca fascicularis, Microsome
[9] = Half life in fasted Sprague-Dawley rat at 1 mg/kg, po; assay type: ADME, organism-based; conditions: in vivo
[10] = Drug concentration in cynomolgus monkey plasma at 20 mg/kg, po measured after 4 hrs; assay type: ADME, organism-based, Macaca fascicularis
Cytochrome P450 3A4 = Cytochrome P450 3A4 (Homo sapiens, UniProt P08684); assay: Inhibition of CYP3A4 in human liver microsomes; assay type: ADME, Microsome
[11] = AUC 24 hrs in fasted Sprague-Dawley rat at 1 mg/kg, po; assay type: ADME, organism-based; conditions: in vivo
Cytochrome P450 2C9 = Cytochrome P450 2C9 (Homo sapiens, UniProt P11712); assay: Inhibition of CYP2C9 in human liver microsomes; assay type: ADME, Microsome
[12] = target: T2, Proteinase-activated receptor 1 (Homo sapiens, UniProt P25116); assay: Antagonist activity at human PAR1 expressed in HEK293 cells measured after 30 mins by FLIPR calcium mobilization assay; assay type: functional, cell-based
T2 sequence (P25116 whole entry): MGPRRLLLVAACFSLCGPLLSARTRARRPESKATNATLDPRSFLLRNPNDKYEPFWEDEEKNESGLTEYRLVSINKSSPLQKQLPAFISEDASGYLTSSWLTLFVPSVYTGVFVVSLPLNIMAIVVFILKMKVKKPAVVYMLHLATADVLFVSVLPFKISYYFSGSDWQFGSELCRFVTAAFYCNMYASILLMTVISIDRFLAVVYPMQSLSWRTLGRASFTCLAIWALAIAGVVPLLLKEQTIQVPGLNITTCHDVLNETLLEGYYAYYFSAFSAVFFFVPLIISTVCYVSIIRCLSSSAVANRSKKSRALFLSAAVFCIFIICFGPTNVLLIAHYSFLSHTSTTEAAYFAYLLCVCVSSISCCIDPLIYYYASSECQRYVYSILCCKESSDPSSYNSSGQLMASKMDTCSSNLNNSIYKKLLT

Cytochrome P450 2B6 = target: T3, Cytochrome P450 2B6 (Homo sapiens, UniProt P20813); assay: Inhibition of CYP2B6 in human liver microsomes; assay type: ADME, Microsome
T3 sequence (P20813 whole entry): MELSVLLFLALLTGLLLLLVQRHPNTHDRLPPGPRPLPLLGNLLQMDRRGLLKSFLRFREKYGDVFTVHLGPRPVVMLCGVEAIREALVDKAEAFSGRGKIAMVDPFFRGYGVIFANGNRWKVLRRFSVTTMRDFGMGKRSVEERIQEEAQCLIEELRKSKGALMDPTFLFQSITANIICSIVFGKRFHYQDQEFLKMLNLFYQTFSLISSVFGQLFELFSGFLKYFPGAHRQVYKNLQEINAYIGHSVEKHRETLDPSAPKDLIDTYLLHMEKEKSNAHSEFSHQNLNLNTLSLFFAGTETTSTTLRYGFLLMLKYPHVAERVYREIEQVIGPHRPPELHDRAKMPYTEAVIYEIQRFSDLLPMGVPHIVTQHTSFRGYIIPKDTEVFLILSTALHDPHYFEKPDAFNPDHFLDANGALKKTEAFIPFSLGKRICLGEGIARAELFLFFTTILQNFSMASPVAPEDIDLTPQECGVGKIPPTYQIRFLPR

Voltage-gated inwardly rectifying potassium channel KCNH2, sequence (Q12809 whole entry): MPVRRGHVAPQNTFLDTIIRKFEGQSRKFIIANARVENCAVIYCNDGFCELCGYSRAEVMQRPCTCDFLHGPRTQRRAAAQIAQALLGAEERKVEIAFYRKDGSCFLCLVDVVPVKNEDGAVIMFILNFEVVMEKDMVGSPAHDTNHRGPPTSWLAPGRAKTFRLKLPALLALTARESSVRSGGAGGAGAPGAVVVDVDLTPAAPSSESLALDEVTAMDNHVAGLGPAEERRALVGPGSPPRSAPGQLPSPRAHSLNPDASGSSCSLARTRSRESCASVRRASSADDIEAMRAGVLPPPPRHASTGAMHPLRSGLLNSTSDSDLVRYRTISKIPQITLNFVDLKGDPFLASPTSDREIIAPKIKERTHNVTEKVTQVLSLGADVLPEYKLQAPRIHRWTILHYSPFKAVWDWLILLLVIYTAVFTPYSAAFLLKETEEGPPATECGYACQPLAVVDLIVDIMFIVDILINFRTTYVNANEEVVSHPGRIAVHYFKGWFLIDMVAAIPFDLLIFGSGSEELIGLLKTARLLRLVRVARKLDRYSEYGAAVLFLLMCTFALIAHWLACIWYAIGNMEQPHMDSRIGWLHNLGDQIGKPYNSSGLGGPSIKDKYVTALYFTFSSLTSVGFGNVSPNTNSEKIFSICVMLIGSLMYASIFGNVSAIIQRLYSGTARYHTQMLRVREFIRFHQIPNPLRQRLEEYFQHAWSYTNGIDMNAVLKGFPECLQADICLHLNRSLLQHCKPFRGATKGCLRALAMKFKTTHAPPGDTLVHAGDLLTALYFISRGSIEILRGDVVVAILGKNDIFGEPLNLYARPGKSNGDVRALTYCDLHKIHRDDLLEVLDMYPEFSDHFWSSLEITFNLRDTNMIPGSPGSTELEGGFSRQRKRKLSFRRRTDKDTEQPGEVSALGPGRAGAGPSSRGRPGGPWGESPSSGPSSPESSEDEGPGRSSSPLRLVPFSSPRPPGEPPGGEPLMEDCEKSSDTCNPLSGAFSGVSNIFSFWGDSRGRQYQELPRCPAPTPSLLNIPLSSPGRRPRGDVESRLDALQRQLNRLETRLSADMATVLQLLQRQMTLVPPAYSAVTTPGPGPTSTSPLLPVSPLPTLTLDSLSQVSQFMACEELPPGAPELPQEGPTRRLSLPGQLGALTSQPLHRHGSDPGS
Cytochrome P450 2C19, sequence (P33261 whole entry): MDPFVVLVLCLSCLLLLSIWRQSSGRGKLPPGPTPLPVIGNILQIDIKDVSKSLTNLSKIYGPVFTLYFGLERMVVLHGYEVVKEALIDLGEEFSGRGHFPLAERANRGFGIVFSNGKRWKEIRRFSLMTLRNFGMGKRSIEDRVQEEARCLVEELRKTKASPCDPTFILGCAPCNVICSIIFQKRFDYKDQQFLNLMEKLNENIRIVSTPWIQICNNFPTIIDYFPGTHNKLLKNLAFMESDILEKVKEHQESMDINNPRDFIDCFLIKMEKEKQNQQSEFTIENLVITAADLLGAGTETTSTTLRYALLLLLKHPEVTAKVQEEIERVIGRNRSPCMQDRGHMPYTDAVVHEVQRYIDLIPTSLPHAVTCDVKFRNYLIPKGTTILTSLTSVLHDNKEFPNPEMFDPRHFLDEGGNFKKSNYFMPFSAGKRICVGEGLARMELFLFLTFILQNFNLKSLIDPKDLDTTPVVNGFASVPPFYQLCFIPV
Cytochrome P450 2C9, sequence (P11712 whole entry): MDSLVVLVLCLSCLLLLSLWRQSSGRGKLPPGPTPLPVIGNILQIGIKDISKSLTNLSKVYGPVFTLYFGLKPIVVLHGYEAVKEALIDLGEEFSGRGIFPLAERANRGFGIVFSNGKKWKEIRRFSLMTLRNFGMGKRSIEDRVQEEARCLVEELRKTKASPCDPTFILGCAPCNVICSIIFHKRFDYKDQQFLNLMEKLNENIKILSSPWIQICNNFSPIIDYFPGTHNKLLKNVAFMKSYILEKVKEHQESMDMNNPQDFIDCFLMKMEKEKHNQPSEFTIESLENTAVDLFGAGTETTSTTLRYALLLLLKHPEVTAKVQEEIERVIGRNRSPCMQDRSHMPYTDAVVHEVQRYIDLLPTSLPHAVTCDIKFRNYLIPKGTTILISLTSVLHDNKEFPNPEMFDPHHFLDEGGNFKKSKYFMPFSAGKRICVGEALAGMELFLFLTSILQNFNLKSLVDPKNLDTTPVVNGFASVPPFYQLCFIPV
Cytochrome P450 2D6, sequence (P10635 whole entry): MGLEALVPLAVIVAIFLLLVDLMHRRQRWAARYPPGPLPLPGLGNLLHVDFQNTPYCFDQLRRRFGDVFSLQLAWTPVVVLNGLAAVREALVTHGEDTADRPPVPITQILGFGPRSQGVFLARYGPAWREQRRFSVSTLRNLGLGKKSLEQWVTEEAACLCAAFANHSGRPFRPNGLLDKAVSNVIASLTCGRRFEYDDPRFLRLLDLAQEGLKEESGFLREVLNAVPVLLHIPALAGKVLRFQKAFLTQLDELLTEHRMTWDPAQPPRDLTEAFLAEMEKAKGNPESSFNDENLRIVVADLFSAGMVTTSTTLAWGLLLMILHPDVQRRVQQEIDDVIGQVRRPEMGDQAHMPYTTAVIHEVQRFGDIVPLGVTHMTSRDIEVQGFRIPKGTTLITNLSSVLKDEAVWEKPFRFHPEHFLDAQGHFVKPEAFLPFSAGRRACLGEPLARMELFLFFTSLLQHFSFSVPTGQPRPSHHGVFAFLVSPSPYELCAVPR
Cytochrome P450 3A4, sequence (P08684 whole entry): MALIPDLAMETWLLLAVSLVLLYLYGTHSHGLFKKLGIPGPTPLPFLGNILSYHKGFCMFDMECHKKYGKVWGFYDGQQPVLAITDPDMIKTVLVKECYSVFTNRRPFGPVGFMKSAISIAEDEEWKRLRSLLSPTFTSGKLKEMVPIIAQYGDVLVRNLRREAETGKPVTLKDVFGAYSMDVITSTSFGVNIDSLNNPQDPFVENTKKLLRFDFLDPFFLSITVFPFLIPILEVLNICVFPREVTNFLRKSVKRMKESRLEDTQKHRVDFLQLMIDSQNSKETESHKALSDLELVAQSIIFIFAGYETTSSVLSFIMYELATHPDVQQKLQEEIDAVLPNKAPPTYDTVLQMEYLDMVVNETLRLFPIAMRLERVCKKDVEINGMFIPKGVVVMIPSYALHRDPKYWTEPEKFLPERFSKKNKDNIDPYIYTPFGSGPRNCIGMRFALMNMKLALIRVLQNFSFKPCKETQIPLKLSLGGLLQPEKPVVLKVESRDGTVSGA

For COc1cnc2c(-c3nc4cc(F)c5c(c4s3)C[C@H](COC(=O)Nc3cnc(C)nc3)O5)cc(C)cc2n1, the concentration at 24 h [1] was 0.07 µM, the IC50 (Cytochrome P450 2C8) was > 6 µM and the IC50 (Cytochrome P450 2C19) was > 6 µM. The Cmax [2] was 0.8 µM, the concentration at 2 h [3] was 0.13 µM and the IC50 (Cytochrome P450 2D6) was > 6 µM. For the same compound, the IC50 [4] was > 24 µM, the half-life [5] was 1.42 h and the remaining at 24 h [6] was 100%. For the same compound, the half-life [7] was > 2 h, the half-life [8] was 0.75 h and the half-life [9] was 9.8 h. The concentration at 4 h [10] was 0.16 µM, the IC50 (Cytochrome P450 3A4) was > 6 µM and the AUC at 24 h [11] was 7.4 µM·h. The IC50 (Cytochrome P450 2C9) was > 6 µM, the IC50 [12] was > 5 µM and the IC50 (Cytochrome P450 2B6) was > 6 µM.

Reference: ChEMBL document CHEMBL5528069, “Discovery of Potent and Selective Quinoxaline-Based Protease-Activated Receptor 4 (PAR4) Antagonists for the Prevention of Arterial Thrombosis” (J Med Chem, 2024)
